Assays:
[1] = biological target: T1, chimeric receptor containing the EGFR extracellular domain and intracellular HER2 kinase domain (Homo sapiens, UniProt P04626); assay: EGF receptor-HER2 phosphorylation assay in whole EGFR-NIH3T3 cells (ELISA); format: cell-based; conditions: NIH3T3 cells with chimeric receptor, EGF stimulation
T1 construct: P00533 (Epidermal growth factor receptor)
Experimental: HER2 kinase activity in whole EGFR-NIH3T3 cells was measured as described below. 1. Coat ELISA plates (Corning, 96 well, Cat. #25805-96) with 05-101 antibody at 0.5 µg per well in PBS, 100 μL final volume/well, and store overnight at 4° C. Coated plates are good for up to 10 days when stored at 4° C. 1. An NIH3T3 cell line overexpressing a chimeric receptor containing the EGFR extracellular domain and intracellular HER2 kinase domain can be used for this assay. 3. Resuspend cells in seeding medium (DMEM, 0.5% bovine serum), and count the cells using trypan blue. Viability above 90% is acceptable. Seed cells in DMEM medium (0.5% bovine serum) at a density of 10,000 cells per well, 100 μL per well, in a 96 well microtiter plate. Incubate seeded cells in 5% CO2 at 37° C. for about 40 hours. 1. Check seeded cells for contamination using an inverted microscope. […] The maximum phosphotyrosine signal is determined by subtracting the value of the negative controls from the positive controls. The percent inbibitation of phosphotyrosine content for extract-containing wells is then calculated, after subtraction of the negative controls. The IC50 values measured in the EGF receptor-HER2 phosphorylation assay for the compound of formula VI are depicted in Table 6: […]

[2] = system: C6 cells; assay: Growth of C6 cells (SRB); format: cell-based; conditions: Rattus norvegicus, 2%
Source text: The assay is the same as the assay set forth in EXAMPLE 10, except that C6 cells (ATCC 107) are used instead of A431 cells.
Compound of formula VI inhibited the growth rate of C6 cells as illustrated in Table 11.

[3] = system: 3T3EGFR; assay: BrdU incorporation assay, 3T3EGFR, EGF; format: cell-based
[4] = system: 3T3EGFR; assay: BrdU incorporation assay, 3T3EGFR, PDGF; format: cell-based
[5] = biological target: human FLK-1 (Homo sapiens, UniProt P35968); assay: FLK-1 autophosphorylation assay in vitro (ELISA); format: biochemical; design: host or cells: FLK-1/NIH cells (NIH fibroblast line); lysate captured on L4 or E38 anti-FLK-1 antibody; conditions: FLK-1 autophosphorylation in vitro, immobilized FLK-1 from FLK-1/NIH cell lysate
Source text: The following protocol describes the ELISA procedures used to determine the FLK-1 autophosphorylation activity in vitro. The procedure also describes the protocol for the initial screening of indolinone compounds. 2. FLK-1/NIH cells: NIH fibroblast line overexpressing human FLK-1 clone 3 (MPI, Martinsried, Germany). 6. L4 or […]: monoclonal antibody specific for FLK-1; purified by protein-A agarose affinity chromatography (SUGEN, Inc., Redwood City, Calif.). 2. Remove the medium and wash the cells twice with PBS. Lyse with HNTG lysis buffer. Collect all lysates and mix them on a vortex for 20-30 seconds. 1. Coat Corning 96-well ELISA plates with 2 ug/well of purified L4 (or […]) in 100 μL of PBS overnight at 4° C. 5. Dilute lysate in PBS to give final concentration of 50 ug/100 μL. Add 100 μL of diluted lysate per well. Incubate with shaking at 4° C. overnight. 7. Add 80 μL of kinase buffer to the wells (negative control wells get 90 μL). 8. Dilue compounds (normally 10 fold) into wells of a polypropylene plate containing 20% DMSO in TBS. 9. Add 10 μL of the prediluted compounds to the ELISA wells containing immobilized FLK-1 and shake. Control wells receive no compound. […] When the color in the positive control wells reaches an absorbance of about 0.35-0.4, read plates on Dynatech MR7000 ELISA reader. The IC50 values measured in the above assay for the compound of formula VI are depicted in Table 1: […]

Chain of human FLK-1 (P35968 20-1356): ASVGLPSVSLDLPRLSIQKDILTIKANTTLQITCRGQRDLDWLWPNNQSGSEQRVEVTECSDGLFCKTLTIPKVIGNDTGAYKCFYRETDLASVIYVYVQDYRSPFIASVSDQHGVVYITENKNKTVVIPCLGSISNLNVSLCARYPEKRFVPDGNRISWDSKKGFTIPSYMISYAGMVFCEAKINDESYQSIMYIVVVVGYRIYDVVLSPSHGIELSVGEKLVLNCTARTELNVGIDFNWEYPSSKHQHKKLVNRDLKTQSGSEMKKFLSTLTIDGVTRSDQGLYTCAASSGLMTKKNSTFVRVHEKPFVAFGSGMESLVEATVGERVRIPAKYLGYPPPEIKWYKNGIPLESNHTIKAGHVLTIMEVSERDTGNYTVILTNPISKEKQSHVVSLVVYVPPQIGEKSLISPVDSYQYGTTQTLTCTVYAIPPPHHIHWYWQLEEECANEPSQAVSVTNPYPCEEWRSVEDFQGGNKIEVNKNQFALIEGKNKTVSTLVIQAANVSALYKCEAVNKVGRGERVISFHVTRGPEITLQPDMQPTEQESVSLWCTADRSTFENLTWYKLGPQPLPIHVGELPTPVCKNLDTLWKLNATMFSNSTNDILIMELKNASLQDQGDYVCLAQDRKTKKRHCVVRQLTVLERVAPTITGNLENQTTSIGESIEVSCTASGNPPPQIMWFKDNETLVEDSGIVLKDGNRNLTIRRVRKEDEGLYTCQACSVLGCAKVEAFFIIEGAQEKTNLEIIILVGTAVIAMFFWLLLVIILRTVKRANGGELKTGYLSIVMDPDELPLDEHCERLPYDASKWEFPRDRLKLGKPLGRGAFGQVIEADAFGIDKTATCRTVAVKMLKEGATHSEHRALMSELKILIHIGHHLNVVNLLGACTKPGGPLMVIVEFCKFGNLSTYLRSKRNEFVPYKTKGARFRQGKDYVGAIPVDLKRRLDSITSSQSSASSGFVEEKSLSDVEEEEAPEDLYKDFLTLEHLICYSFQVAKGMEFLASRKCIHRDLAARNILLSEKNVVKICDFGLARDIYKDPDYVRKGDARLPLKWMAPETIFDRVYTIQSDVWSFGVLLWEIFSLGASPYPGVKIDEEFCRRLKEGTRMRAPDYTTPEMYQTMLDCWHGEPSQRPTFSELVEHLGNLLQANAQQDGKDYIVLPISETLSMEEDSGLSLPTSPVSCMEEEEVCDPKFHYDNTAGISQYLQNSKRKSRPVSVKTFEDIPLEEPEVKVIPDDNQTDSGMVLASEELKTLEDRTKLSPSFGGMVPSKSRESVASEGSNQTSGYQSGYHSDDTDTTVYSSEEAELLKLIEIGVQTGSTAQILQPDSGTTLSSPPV
T1 sequence (P04626 720-987 limits assumed, change not shown): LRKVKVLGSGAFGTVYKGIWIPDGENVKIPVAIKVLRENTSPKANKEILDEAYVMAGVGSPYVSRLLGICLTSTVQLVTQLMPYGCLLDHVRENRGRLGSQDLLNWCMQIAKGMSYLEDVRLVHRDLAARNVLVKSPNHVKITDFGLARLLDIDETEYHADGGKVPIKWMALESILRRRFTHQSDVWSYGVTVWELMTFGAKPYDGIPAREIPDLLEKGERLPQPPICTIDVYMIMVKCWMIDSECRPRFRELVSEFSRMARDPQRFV

`Cc1cc(/C=C2/C(=O)Nc3ccccc32)c(C)c2c1[nH]c1ccccc12` [VI] showed an IC50 [1] of 8.72 µM, an IC50 [2] of 1.55 µM and an IC50 [3] of 7.03 µM. The IC50 [4] was 7 µM and the IC50 [5] was over 50 µM.

Source: patent publication US6514981B1, “Methods of modulating tyrosine protein kinase function with indolinone compounds” (Sugen, Inc., priority 1998, dated 2003)
